The subject of one assay is SK-Hep1. The assay can be described thus: Cell Titer-Glo viability, SK-Hep1. It is filed as cell-based. The conditions noted are these: Homo sapiens. The method, then:
(§1) The efficacy of compound 47 against HCC proliferation was tested on a wider panel of HCC cell lines: Hep3B ([…]), Hs817T (▪), PLC/PRF/5 (▴) and SK-Hep 1 (▾), as determined by Cell Titer-Glo assay.
(§2) Cells were plated at 5000-7000 cells/per well and incubated for 24 h before treatment. […] Cell Titer-Glo (Promega, Madison, Wis.) assay was performed according to manufacturer's instruction with luminescence detected on SpectraMax M5 (Molecular Devices, Sunnyvale, Calif.). Data was expressed as percentage of viability vs. vehicle-treated controls.
(§3) Accordingly, Compound 47 was screened against a larger panel of 4 additional HCC cell lines.
In general terms: Cellular ATP, detected with luciferase, serves as a proxy for viable cell number.

The subject of the next assay is Hs817T. The assay can be described thus: Cell Titer-Glo viability, Hs817T. The conditions noted are these: 5 μM. It is filed as cell-based, human. The method, then:
as §1, §2, §3

Assay [1] concerns Hep3B, Hs817T, PLC/PRF/5 and SK-Hep 1. The assay can be described thus: Cell Titer-Glo viability, panel of 4 additional HCC cell lines. It is filed as cell-based, human. On the procedure: as §1, §2, §3
Assay [2] deals with phospho-Erk, phospho-Akt, PCNA, cyclin D1, cleaved PARP, Bax, Bcl-xL. Briefly: Immunoblot of signalling, cell cycling and apoptosis markers in HuH7 or HepG2. The class given is cell-based, human. As to conditions: HuH7 or HepG2, 0, 1, 5 or 10 μM, 24 h. The method, then: HuH7 or HepG2 cells were treated with increasing concentration of Compound 47 (0, 1, 5 or 10 μM) for 24 h. Cell lysates were harvested and immunoblotted against cleaved PARP, phospho-Erk, phospho-Akt, PCNA, cyclin D1, Bax and Bcl-xL, with HSP60 as loading control.
Protein concentrations were assayed by BCA method (Pierce, Rockford, Ill.). Samples were resolved using 6-10% SDS-PAGE and transferred to nitrocellulose or PVDF membranes by tank transfer. Immunodetection was by chemiluminescence (SuperSignal, Pierce) using specific antibodies diluted in PBS with 0.05% (v/v) Tween 20 and 5% (w/v) powdered milk or BSA. Anti-phospho-IGF-1R, anti-phospho-EphA2, anti-phospho-Erk, anti-phospho-Akt, anti-Bax, anti-BCL-xL were from Cell Signaling Technology (Beverly, Mass.); anti-PCNA and anti-HSP60 from Santa Cruz Biotechnology (Santa Cruz, Calif.); anti-cyclin-D1 from BD Pharmingen (San Jose, Calif.). Secondary antibodies were anti-mouse and anti-rabbit HRP-conjugated antibodies (Pierce).
(§4) Next, the mechanism of Compound 47's anti-proliferative effects was investigated. […] However, there was little effect on the mitochondrial apoptotic players Bax and BCL-xL.
(A western blot detects proteins with antibodies after separation by electrophoresis.)

Another assay relates to caspase-3. The assay can be described thus: Caspase-3 activity assay in HuH7 and HepG2. It is filed as cell-based, human. As to conditions: HuH7 and HepG2, 24 h, Ac-DEVD-AMC hydrolysis. The method, then:
HuH7 (darker bar) and HepG2 (lighter bar) cells treated as described in FIG. 4 were harvested for caspase-3 assay performed by the catalytic hydrolysis of fluorogenic Ac-DEVD-AMC. Results were expressed as a normalized RFU per μg lysate per h of incubation with the AMC substrate (n=3).
Cells were subjected to Compound 47 treatment for 24 h prior to harvesting. Caspase-3 activities were determined by as previously described (Ho HK, Pok S, Streit S, Ruhe J E, Hart S, Lim K S, et al. Fibroblast growth factor receptor 4 regulates proliferation, anti-apoptosis and alpha-fetoprotein secretion during hepatocellular carcinoma progression and represents a potential target for therapeutic intervention. J Hepatol 2009 January; 50(1):118-127). Data were expressed as RFU/μg lysate/h incubation and error bars in terms of SD with n=3.
as §4

The target in the next assay is T1, Tyro3 (Homo sapiens, UniProt Q06418).
T1 construct: we examined the constitutively phosphorylated IGF-1R, EphA2 and Tyro3; endogenous in cells; host or cells: HuH7
T1 sequence (Q06418 41-890): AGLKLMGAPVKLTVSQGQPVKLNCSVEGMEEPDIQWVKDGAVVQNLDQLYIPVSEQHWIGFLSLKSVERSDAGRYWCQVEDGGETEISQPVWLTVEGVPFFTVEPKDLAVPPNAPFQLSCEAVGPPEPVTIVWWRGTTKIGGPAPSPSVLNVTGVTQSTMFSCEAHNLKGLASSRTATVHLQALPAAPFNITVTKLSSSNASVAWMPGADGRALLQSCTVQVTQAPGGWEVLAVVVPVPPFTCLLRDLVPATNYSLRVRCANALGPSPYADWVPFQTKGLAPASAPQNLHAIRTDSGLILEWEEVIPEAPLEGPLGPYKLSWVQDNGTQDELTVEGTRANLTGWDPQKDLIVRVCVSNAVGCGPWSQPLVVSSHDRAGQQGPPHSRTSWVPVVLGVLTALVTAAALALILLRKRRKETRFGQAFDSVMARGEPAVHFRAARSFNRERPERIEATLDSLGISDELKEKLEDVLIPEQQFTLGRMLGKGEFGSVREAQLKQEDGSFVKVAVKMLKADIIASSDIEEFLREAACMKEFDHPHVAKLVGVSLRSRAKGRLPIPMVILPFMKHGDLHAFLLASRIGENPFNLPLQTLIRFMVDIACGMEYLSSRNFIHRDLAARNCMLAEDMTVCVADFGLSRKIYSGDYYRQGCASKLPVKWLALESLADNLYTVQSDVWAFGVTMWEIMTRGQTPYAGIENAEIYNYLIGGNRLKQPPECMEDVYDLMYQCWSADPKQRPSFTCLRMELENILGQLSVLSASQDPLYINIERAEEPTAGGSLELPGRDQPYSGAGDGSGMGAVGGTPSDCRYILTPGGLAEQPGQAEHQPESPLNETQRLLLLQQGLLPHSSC
Briefly: Human phospho-RTK array, HuH7: Tyro-3. It is filed as cell-based. The conditions noted are these: 24 h, untreated 0.15. On the procedure: (§5) Kinase phosphorylation changes were determined with human phospho-RTK array.
(§6) Cells harvesting, hybridization with RTK array and incubation with anti-phosphotyrosine were performed according to manufacturer's instruction. Imaging and quantification of the spots intensities was with Fujifilm LAS-3000 (Tokyo, Japan). Average signal of the duplicate spots for each RTK was determined.

The target of another assay is T2, Her3 (Homo sapiens, UniProt P21860).
T2 construct: endogenous in cells; host or cells: HuH7
T2 sequence (P21860 20-1342): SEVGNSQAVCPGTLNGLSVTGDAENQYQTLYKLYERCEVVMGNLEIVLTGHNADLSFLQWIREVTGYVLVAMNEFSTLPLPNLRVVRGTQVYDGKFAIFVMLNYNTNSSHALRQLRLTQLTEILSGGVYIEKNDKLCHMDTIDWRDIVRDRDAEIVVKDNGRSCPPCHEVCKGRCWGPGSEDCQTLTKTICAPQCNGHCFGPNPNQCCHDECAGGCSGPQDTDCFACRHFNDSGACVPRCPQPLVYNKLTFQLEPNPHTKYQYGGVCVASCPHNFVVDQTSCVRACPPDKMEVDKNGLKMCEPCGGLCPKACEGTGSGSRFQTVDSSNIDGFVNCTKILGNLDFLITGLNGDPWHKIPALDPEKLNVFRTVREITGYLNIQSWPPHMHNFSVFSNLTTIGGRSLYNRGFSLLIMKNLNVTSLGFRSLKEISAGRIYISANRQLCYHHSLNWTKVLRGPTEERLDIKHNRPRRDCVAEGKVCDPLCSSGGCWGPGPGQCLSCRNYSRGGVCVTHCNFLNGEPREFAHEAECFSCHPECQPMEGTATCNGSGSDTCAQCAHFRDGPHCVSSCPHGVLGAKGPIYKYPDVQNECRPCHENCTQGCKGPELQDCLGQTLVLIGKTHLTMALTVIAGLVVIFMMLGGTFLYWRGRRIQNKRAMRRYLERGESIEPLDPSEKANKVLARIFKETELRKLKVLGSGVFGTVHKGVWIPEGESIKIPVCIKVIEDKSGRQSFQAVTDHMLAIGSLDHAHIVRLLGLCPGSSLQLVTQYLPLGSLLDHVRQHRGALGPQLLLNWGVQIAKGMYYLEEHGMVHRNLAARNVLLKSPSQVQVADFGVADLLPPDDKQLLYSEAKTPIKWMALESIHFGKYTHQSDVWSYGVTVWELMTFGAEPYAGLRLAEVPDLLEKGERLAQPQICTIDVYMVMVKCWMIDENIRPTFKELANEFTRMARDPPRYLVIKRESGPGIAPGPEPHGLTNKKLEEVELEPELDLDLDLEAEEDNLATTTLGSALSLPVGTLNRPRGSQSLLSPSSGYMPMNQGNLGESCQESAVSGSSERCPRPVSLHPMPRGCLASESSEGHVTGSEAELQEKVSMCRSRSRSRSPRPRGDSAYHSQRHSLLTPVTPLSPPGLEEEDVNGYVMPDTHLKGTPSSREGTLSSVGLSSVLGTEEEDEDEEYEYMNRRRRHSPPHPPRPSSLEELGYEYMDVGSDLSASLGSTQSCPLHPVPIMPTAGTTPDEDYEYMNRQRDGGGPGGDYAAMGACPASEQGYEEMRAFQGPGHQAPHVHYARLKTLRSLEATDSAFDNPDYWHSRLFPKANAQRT
The assay can be described thus: Human phospho-RTK array, HuH7: Her3. The class given is cell-based. The conditions noted are these: 24 h, untreated 0.05. On the procedure: as §5, §6

The target in the next assay is T3, Met (Homo sapiens, UniProt P08581).
T3 construct: endogenous in cells; host or cells: HuH7
T3 sequence (P08581 25-1390): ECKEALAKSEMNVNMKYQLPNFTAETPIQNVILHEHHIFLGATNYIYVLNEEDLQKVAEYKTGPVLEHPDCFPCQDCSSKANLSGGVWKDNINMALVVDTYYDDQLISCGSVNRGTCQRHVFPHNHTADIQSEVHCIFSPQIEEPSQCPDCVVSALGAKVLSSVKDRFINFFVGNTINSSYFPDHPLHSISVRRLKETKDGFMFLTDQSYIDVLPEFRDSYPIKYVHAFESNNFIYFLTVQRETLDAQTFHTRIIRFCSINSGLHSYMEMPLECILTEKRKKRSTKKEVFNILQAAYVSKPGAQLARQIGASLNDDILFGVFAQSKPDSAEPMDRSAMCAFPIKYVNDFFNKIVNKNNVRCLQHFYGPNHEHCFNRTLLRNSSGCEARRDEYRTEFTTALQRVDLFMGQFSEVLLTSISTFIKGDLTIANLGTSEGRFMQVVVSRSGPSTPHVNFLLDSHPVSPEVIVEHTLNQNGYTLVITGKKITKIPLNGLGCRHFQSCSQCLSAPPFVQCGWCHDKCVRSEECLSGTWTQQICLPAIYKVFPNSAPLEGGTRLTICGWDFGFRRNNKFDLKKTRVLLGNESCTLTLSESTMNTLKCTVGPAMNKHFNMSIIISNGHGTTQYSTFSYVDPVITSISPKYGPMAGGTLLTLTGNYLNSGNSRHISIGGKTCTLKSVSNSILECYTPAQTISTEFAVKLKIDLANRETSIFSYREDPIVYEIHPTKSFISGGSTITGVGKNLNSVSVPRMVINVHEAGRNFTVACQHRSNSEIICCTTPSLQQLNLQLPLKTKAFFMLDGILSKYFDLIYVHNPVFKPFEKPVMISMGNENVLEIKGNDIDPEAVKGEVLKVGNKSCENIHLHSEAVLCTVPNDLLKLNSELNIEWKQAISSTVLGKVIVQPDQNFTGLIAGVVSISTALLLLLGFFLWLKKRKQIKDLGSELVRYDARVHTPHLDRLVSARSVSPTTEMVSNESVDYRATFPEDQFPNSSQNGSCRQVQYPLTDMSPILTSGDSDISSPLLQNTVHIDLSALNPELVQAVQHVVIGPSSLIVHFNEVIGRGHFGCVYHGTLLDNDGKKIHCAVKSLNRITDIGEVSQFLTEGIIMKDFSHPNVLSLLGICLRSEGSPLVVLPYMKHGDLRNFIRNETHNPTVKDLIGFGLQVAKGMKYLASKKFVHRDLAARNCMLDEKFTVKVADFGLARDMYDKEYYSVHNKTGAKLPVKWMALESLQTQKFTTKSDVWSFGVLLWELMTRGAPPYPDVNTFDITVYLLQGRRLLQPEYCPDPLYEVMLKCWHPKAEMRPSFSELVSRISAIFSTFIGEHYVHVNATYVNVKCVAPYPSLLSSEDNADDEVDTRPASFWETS
The assay can be described thus: Human phospho-RTK array, HuH7: Met. It is filed as cell-based. As to conditions: 24 h, untreated 0.05. The method, then: as §5, §6

The next assay has as its target T4, EphA2 (Homo sapiens, UniProt P29317).
T4 construct: we examined the constitutively phosphorylated IGF-1R, EphA2 and Tyro3; endogenous in cells; host or cells: HuH7
The assay can be described thus: Immunoprecipitation / anti-phosphotyrosine blot of EphA2 in HuH7. It is filed as cell-based. The conditions noted are these: HuH7, 24 h; Compound 47 1, 5 or 10 μM, sunitinib 10 μM.

Bounds are passed on as bounds.

T4 sequence (P29317 24-976): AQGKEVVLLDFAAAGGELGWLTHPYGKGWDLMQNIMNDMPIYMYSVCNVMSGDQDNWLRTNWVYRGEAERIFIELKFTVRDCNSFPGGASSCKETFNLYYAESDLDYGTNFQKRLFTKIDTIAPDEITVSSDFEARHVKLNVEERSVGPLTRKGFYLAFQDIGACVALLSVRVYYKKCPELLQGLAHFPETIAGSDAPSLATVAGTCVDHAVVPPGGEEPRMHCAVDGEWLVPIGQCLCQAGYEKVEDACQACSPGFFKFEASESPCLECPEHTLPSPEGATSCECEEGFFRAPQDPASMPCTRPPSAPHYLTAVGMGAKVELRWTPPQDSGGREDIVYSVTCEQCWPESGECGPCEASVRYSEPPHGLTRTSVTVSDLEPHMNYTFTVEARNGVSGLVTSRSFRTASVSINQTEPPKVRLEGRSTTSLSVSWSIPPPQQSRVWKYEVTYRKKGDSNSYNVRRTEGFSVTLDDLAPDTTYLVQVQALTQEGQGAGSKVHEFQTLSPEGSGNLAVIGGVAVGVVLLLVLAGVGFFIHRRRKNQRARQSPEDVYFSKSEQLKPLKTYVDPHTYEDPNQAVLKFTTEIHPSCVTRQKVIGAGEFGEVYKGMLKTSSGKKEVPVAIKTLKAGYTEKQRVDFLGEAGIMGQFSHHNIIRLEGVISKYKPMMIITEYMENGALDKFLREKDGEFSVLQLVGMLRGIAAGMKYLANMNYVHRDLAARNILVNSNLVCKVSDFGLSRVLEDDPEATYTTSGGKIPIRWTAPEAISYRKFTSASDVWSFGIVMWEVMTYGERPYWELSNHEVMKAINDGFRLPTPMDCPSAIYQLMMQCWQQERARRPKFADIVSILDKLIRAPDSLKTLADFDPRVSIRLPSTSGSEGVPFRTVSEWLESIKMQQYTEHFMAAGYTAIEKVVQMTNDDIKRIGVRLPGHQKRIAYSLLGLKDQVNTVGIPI

Take `O=C1Nc2cc(Cl)ccc2/C1=C\c1cccc(C(F)(F)F)c1` [Compound 47, (E)-6-Chloro-3-(3-(trifluoromethyl)benzylidene)indolin-2-one]: in the assay on SK-Hep1, the half-inhibitory concentration (IC50) (commonly the concentration that gives 50% inhibition) was over 10 µM. Moreover, in the assay with Hs817T, the “viability Hs817T” value was “undetectable viability”. For the same compound, the “IC50 in 3 of the 4 additional HCC cell lines tested” value in [1] is recorded as “low micromolar or submicromolar”. Further, in [2], the “Bax and BCL-xL (mitochondrial apoptotic players)” value was “little effect”. Further, the “Erk and Akt phosphorylation” value in [2] was “dose-dependent inhibition”. In assay [2], the “cleaved PARP (apoptotic marker)” value is given as “confirmed the participation of pro-apoptotic mechanism”. Moreover, the “cyclin-D1 and PCNA expression (cell cycling markers)” value in [2] is listed as “corresponding reduction”. In the assay with caspase-3, the caspase-3 activity result was “activation”. Moreover, the “Tyro-3 Phosphorylation” value on Tyro3 (serum starved HuH7, 1 μM) worked out at 0.10 Arbitrary units; at Tyro3 (serum starved HuH7, 5 μM), 0.11 Arbitrary units; on Tyro3 (serum starved HuH7, 10 μM) it was 0.07 Arbitrary units. Also, the “Her3 Phosphorylation” value on Her3 (serum starved HuH7, 1 μM) was 0.07 Arbitrary units; at Her3 (serum starved HuH7, 5 μM), 0.04 Arbitrary units; on Her3 (serum starved HuH7, 10 μM) it was 0.03 Arbitrary units. Also, the “Met Phosphorylation” value on Met (serum starved HuH7, 1 μM) is 0.08 Arbitrary units; at Met (serum starved HuH7, 5 μM), 0.05 Arbitrary units; at Met (serum starved HuH7, 10 μM) it was 0.02 Arbitrary units. Besides, the “EphA2 phosphorylation by immunoblot” value at EphA2 is recorded as “proportional reduction”.

These data come from patent US20110269812A1, “NOVEL BENZYLIDENE-INDOLINONE AND THEIR MEDICAL AND DIAGNOSTIC USES” (Agency for Science, Technology and Research, priority 2008, published 2011).
